This note sets out measurements from patent publication US20250353853A1, “FLAVIVIRUS INHIBITORS” (IRBM S.P.A., priority 2022, published 2025).

This experiment concerns ZIKV replicon in Vero cells. Briefly: ZIKV Replication Inhibition Assay (replicon, NanoLuc). To be noted: Zika virus, Vero, 72 h, read-out: Zika Replicon EC50. (In general: In antiviral work, replicon cells carry a viral genome segment that copies itself.)
On to `CC(Cc1ccccc1)[n+]1cc([N-]C(=O)Nc2cccc(C(F)(F)F)c2)on1` (centres unmarked) [Example 1, (3-(1-Phenylpropan-2-yl)-1,2,3-oxadiazol-3-ium-5-yl)((3-(trifluoromethyl)phenyl)carbamoyl)amide], for which the EC50 was 1 to 20 µM.

Take `CC(Cc1ccccc1)[n+]1cc([N-]C(=O)Nc2ccc(C(F)(F)F)cc2)on1` (centres unmarked) [Example 2, (3-(1-phenylpropan-2-yl)-1,2,3-oxadiazol-3-ium-5-yl)((4-(trifluoromethyl)phenyl)carbamoyl)amide]: the EC50 is over 20 µM.

Turning to `CC(Cc1ccccc1)[n+]1cc([N-]C(=O)Nc2ccc3ccccc3c2)on1` (centres unmarked) [Example 3, (Naphthalen-2-ylcarbamoyl)(3-(1-phenylpropan-2-yl)-1,2,3-oxadiazol-3-ium-5-yl)amide], the EC50 was over 20 µM.

`CC(Cc1ccccc1)[n+]1cc([N-]C(=O)Nc2ncc(C(F)(F)F)s2)on1` (centres unmarked) [Example 4, (3-(1-phenylpropan-2-yl)-1,2,3-oxadiazol-3-ium-5-yl)((5-(trifluoromethyl)thiazol-2-yl)carbamoyl)amide]: the EC50 lay within 1 to 20 µM.

As for `O=C([N-]c1c[n+](CCc2ccccc2)no1)Nc1cccc(C(F)(F)F)c1` [Example 5, (3-phenethyl-1,2,3-oxadiazol-3-ium-5-yl)((3-(trifluoromethyl)phenyl)carbamoyl)amide], the EC50 fell in the range of 0.1 to 1 µM.

For the compound `O=C([N-]c1c[n+](Cc2ccccc2)no1)Nc1cccc(C(F)(F)F)c1` [Example 6, (3-Benzyl-1,2,3-oxadiazol-3-ium-5-yl)((3-(trifluoromethyl)phenyl)carbamoyl) amide], the EC50 was in the range of 1 to 20 µM.

Turning to `O=C([N-]c1c[n+](-c2ccccc2)no1)Nc1cccc(C(F)(F)F)c1` [Example 7, (3-phenyl-1,2,3-oxadiazol-3-ium-5-yl)((3-(trifluoromethyl)phenyl)carbamoyl) amide], the 50% effective concentration (EC50) lay within 1 to 20 µM.

As for `CC(Cc1ccccc1)[n+]1cc([N-]C(=O)Nc2cccc(Cl)c2)on1` (centres unmarked) [Example 8, ((3-chlorophenyl)carbamoyl)(3-(1-phenylpropan-2-yl)-1,2,3-oxadiazol-3-ium-5-yl)amide], the EC50 was over 20 µM.

As for `CC(Cc1ccc(Cl)c(Cl)c1)[n+]1cc([N-]C(=O)Nc2cccc(C(F)(F)F)c2)on1` (centres unmarked) [Example 9, (3-(1-(3,4-dichlorophenyl)propan-2-yl)-1,2,3-oxadiazol-3-ium-5-yl)((3-(trifluoromethyl)phenyl)carbamoyl)amide], the EC50 was 1 to 20 µM.

Take `O=C([N-]c1c[n+](C2Cc3ccccc3C2)no1)Nc1cccc(C(F)(F)F)c1` [Example 10, (3-(2,3-dihydro-1H-inden-2-yl)-1,2,3-oxadiazol-3-ium-5-yl)((3-(trifluoromethyl)phenyl)carbamoyl)amide]: the 50% effective concentration (EC50) was 1 to 20 µM.

Take `CC(Cc1ccccc1)[n+]1cc([N-]C(=O)Nc2cc(F)cc(C(F)(F)F)c2)on1` (centres unmarked) [Example 11, ((3-fluoro-5-(trifluoromethyl)phenyl)carbamoyl)(3-(1-phenylpropan-2-yl)-1,2,3-oxadiazol-3-ium-5-yl)amide]: the EC50 is over 20 µM.

Take `CC(Cc1ccccc1)[n+]1cc([N-]C(=O)Nc2ccc3ncccc3c2)on1` (centres unmarked) [Example 12, (3-(1-phenylpropan-2-yl)-1,2,3-oxadiazol-3-ium-5-yl)(quinolin-6-ylcarbamoyl) amide]: the EC50 is over 20 µM.

Take `C[C@H](Cc1ccccc1)[n+]1cc([N-]C(=O)Nc2cccc(C(F)(F)F)c2)on1` [Example 13, (R)-(3-(1-phenylpropan-2-yl)-1,2,3-oxadiazol-3-ium-5-yl)((3-(trifluoromethyl)phenyl)carbamoyl)amide]: the 50% effective concentration (EC50) was in the range of 1 to 20 µM.

On to `C[C@@H](Cc1ccccc1)[n+]1cc([N-]C(=O)Nc2cccc(C(F)(F)F)c2)on1` [Example 14, (S)-(3-(1-phenylpropan-2-yl)-1,2,3-oxadiazol-3-ium-5-yl)((3-(trifluoromethyl)phenyl)carbamoyl)amide], for which the EC50 was over 20 µM.

Consider `CC(Cc1ccccc1)[n+]1cc([N-]C(=O)Nc2cncc(C(F)(F)F)c2)on1` (centres unmarked) [Example 15, (3-(1-Phenylpropan-2-yl)-1,2,3-oxadiazol-3-ium-5-yl)((5-(trifluoromethyl)pyridin-3-yl)carbamoyl)amide], for which the EC50 lay within 1 to 20 µM.

In the case of `CC(Cc1ccccc1)[n+]1cc([N-]C(=O)Nc2cc(C(F)(F)F)ccn2)on1` (centres unmarked) [Example 16, (3-(1-phenylpropan-2-yl)-1,2,3-oxadiazol-3-ium-5-yl)((4-(trifluoromethyl)pyridin-2-yl)carbamoyl)amide], the concentration for a half-maximal effect (EC50) was over 20 µM.

`O=C([N-]c1c[n+](Cc2ccc(-c3ccccc3)cc2)no1)Nc1cccc(C(F)(F)F)c1` [Example 17, (3-([1,1′-Biphenyl]-4-ylmethyl)-1,2,3-oxadiazol-3-ium-5-yl)((3-(trifluoromethyl)phenyl)carbamoyl)amide]: the EC50 lay in the range of 0.1 to 1 µM.

As for `O=C([N-]c1c[n+](Cc2ccc3ccccc3c2)no1)Nc1cccc(C(F)(F)F)c1` [Example 18, (3-(naphthalen-2-ylmethyl)-1,2,3-oxadiazol-3-ium-5-yl)((3-(trifluoromethyl)phenyl)carbamoyl)amide], the EC50 fell in the range of 1 to 20 µM.

Take `O=C([N-]c1c[n+](Cc2ccc(-c3ccsc3)cc2)no1)Nc1cccc(C(F)(F)F)c1` [Example 20, (3-(4-(thiophen-3-yl)benzyl)-1,2,3-oxadiazol-3-ium-5-yl)((3(trifluoromethyl)phenyl)carbamoyl)amide]: the EC50 was 0.1 to 1 µM.

In the case of `Cc1ccccc1-c1ccc(C[n+]2cc([N-]C(=O)Nc3cccc(C(F)(F)F)c3)on2)cc1` [Example 21, (3-((2′-methyl-[1,1′-biphenyl]-4-yl)methyl)-1,2,3-oxadiazol-3-ium-5-yl)((3-(trifluoromethyl)phenyl)carbamoyl)amide], the EC50 lay in the range of 0.1 to 1 µM.

In the case of `O=C([N-]c1on[n+](Cc2ccccc2)c1Cl)Nc1cccc(C(F)(F)F)c1` [Example 24, (3-Benzyl-4-chloro-1,2,3-oxadiazol-3-ium-5-yl)((3-(trifluoromethyl)phenyl)carbamoyl)amide], the EC50 is over 20 µM.

Turning to `O=C([N-]c1c[n+](C2(c3ccccc3)CC2)no1)Nc1cccc(C(F)(F)F)c1` [Example 25, (3-(1-phenylcyclopropyl)-1,2,3-oxadiazol-3-ium-5-yl)((3-(trifluoromethyl)phenyl)carbamoyl)amide], the EC50 was 1 to 20 µM.

For `O=C([N-]c1c[n+](Cc2cccc(-c3ccccc3)c2)no1)Nc1cccc(C(F)(F)F)c1` [Example 27, (3-([1,1′-biphenyl]-3-ylmethyl)-1,2,3-oxadiazol-3-ium-5-yl)((3-(trifluoromethyl)phenyl)carbamoyl)amide], the EC50 lay in the range of 1 to 20 µM.

As to `CC(C[n+]1cc([N-]C(=O)Nc2cccc(C(F)(F)F)c2)on1)c1ccccc1` (centres unmarked) [Example 28, (3-(2-phenylpropyl)-1,2,3-oxadiazol-3-ium-5-yl)((3-(trifluoromethyl)phenyl)carbamoyl)amide], the EC50 is 0.1 to 1 µM.

On to `O=C([N-]c1c[n+](Cc2cccnc2)no1)Nc1cccc(C(F)(F)F)c1` [Example 29, (3-(pyridin-3-ylmethyl)-1,2,3-oxadiazol-3-ium-5-yl)((3-(trifluoromethyl)phenyl)carbamoyl)amide], for which the EC50 lay within 1 to 20 µM.

Take `O=C([N-]c1c[n+]([C@@H](CO)c2ccccc2)no1)Nc1cccc(C(F)(F)F)c1` [Example 30, (R)-(3-(2-hydroxy-1-phenylethyl)-1,2,3-oxadiazol-3-ium-5-yl)((3-(trifluoromethyl)phenyl)carbamoyl)amide]: the EC50 was 1 to 20 µM.

In the case of `O=C([N-]c1c[n+]([C@H](CO)c2ccccc2)no1)Nc1cccc(C(F)(F)F)c1` [Example 31, (S)-(3-(2-hydroxy-1-phenylethyl)-1,2,3-oxadiazol-3-ium-5-yl)((3-(trifluoromethyl)phenyl)carbamoyl)amide], the EC50 is over 20 µM.

With `O=C([N-]c1c[n+]([C@H](CO)Cc2ccccc2)no1)Nc1cccc(C(F)(F)F)c1` [Example 32, (S)-(3-(1-hydroxy-3-phenylpropan-2-yl)-1,2,3-oxadiazol-3-ium-5-yl)((3-(trifluoromethyl)phenyl)carbamoyl)amide], the EC50 lay in the range of 1 to 20 µM.

Consider `Cc1cc(NC(=O)[N-]c2c[n+](C(C)Cc3ccccc3)no2)cc(C(F)(F)F)c1` (centres unmarked) [Example 33, ((3-methyl-5-(trifluoromethyl)phenyl)carbamoyl)(3-(1-phenylpropan-2-yl)-1,2,3-oxadiazol-3-ium-5-yl)amide], for which the EC50 was over 20 µM.

Regarding `COc1cc(NC(=O)[N-]c2c[n+](C(C)Cc3ccccc3)no2)cc(C(F)(F)F)c1` (centres unmarked) [Example 34, ((3-methoxy-5-(trifluoromethyl)phenyl)carbamoyl)(3-(1-phenylpropan-2-yl)-1,2,3-oxadiazol-3-ium-5-yl)amide], the EC50 is over 20 µM.

As to `C=C(c1ccccc1)[n+]1cc([N-]C(=O)Nc2cccc(C(F)(F)F)c2)on1` [Example 35, (3-(1-Phenylvinyl)-1,2,3-oxadiazol-3-ium-5-yl)((3-(trifluoromethyl)phenyl)carbamoyl)amide], the EC50 is 1 to 20 µM.

As for `C=C(Cc1ccccc1)[n+]1cc([N-]C(=O)Nc2cccc(C(F)(F)F)c2)on1` [Example 36, (3-(3-phenylprop-1-en-2-yl)-1,2,3-oxadiazol-3-ium-5-yl)((3-(trifluoromethyl)phenyl)carbamoyl)amide], the EC50 is over 20 µM.

Regarding `O=C([N-]c1c[n+]([C@H](CF)Cc2ccccc2)no1)Nc1cccc(C(F)(F)F)c1` [Example 37, (S)-(3-(1-fluoro-3-phenylpropan-2-yl)-1,2,3-oxadiazol-3-ium-5-yl)((3-(trifluoromethyl)phenyl)carbamoyl)amide], the EC50 is over 20 µM.

As for `CC(c1ccccc1)[n+]1cc([N-]C(=O)Nc2cccc(C(F)(F)F)c2)on1` (centres unmarked) [Example 38, (3-(1-phenylethyl)-1,2,3-oxadiazol-3-ium-5-yl)((3-(trifluoromethyl)phenyl)carbamoyl)amide], the EC50 is 1 to 20 µM.

As for `Cc1nc(OCCN(C)C)ncc1-c1ccc(C[n+]2cc([N-]C(=O)Nc3cccc(C(F)(F)F)c3)on2)nc1` [Example 43, (3-((5-(2-(2-(dimethylamino)ethoxy)-4-methylpyrimidin-5-yl)pyridin-2-yl)methyl)-1,2,3-oxadiazol-3-ium-5-yl)((3-(trifluoromethyl)phenyl)carbamoyl)amide], the EC50 lay in the range of 0.1 to 1 µM.

Broadly, the EC50 is the concentration at which the effect is half-maximal.
